Experimental data: publication PMC11446937, “Bacteria from the Amycolatopsis genus associated with a toxic bird secrete protective secondary metabolites” (Nature Communications, 2024)

Legend:
[1] = system: bacterial and fungal indicator strains; test: Disc-diffusion antimicrobial activity, indicator strains overall; assay type: cell-based; settings: disc-diffusion assays of isolated compounds against indicator strains incl. K. rhizophila and C. albicans
Procedure: For more experimental details, see Supplementary Methods and Supplementary Tables 16–18.
Droplet-collapsing test of lipopetides.
Pure compounds were dissolved in water (final concentration 10 mM). Then, 20 µl of the solutions were placed on a hydrophobic surface (parafilm ‘M’). Tensioactive properties were determined by the observation of collapsed […]
33,34 Tween-20 (10 mM) was used as tensioactive positive control. For better visualization, 0.0025% crystal violet was added to the droplet, having no effect on the […]
Supplementary Figure 88. Droplet-collapsing assay testing the tensioactive properties of lipopeptides (n=3). […]
epidermidis DSM103867, as well as the skin pathogenic yeast C. albicans SC5314. […] Antimicrobial activity was determined by measuring the inhibition zone surrounding the disc in mm. […]
Pure compounds (1 mg/mL in DMSO or 50% MeOH) were tested for their antimicrobial activity against a variety of bacterial and fungal indicator strains: B. subtilis 6633 (Bs), S. aureus SG511 (Sa1), E. coli SG458 (Ec), P. aeruginosa K799/61 (Pa), S. aureus 134/94 (MRSA) (Sa2), E. faecalis 1528 (VRSA) (Ef), Mycobacterium vaccae 10670 (Mv), Sporobomyces salmonicolor 549 (Ss), C. albicans C.A. (Ca), and Penicillium notatum JP36 (Pn). […] Antimicrobial activity was determined by measuring the inhibition zone surrounding the disc in mm (n=3). […]

[2] = system: Mycobacterium vaccae 10670; test: Disc-diffusion antimicrobial assay, clinically relevant indicator strains; settings: Suppl. Table 17, 1 mg/mL in DMSO, 50 µl (50 µg) per disc, Cip 5 µg/mL (H2O/HCl), DMSO solvent control itself 11P, n=3
[3] = system: P. aeruginosa K799/61; settings: Suppl. Table 17; disc diffusion; 1 mg/mL in DMSO, 50 µl (50 µg) per disc; Cip 5 µg/mL (H2O/HCl); DMSO solvent control itself 12P; n=3
[4] = system: S. aureus SG511; test: Disc-diffusion antimicrobial assay, clinically relevant indicator strains; settings: Suppl. Table 17, 1 mg/mL in DMSO, 50 µl (50 µg) per disc, Cip 5 µg/mL (H2O/HCl), DMSO solvent control itself 11P, n=3
[5] = system: B. subtilis 6633; test: as above; settings: Suppl. Table 17, 1 mg/mL in DMSO, 50 µl (50 µg) per disc, Cip 5 µg/mL (H2O/HCl), DMSO solvent control itself 12P, n=3
[6] = system: S. aureus 134/94 (MRSA); test: as above; settings: Suppl. Table 17, 1 mg/mL in DMSO, 50 µl (50 µg) per disc, Cip 5 µg/mL (H2O/HCl), DMSO solvent control 0, n=3
[7] = system: E. faecalis 1528; test: as above; settings: Suppl. Table 17, 1 mg/mL in DMSO, 50 µl (50 µg) per disc, Cip 5 µg/mL (H2O/HCl), DMSO solvent control itself 12p, n=3
[8] = system: Sporobomyces salmonicolor 549; test: as above; assay type: cell-based; settings: Suppl. Table 17, 1 mg/mL in DMSO, 50 µl (50 µg) per disc, Amph B 10 µg/mL (DMSO/H2O), DMSO solvent control itself 13P, n=3
Procedure: (§1) Disc-diffusion antimicrobial activity assays against clinically relevant indicator strains.
(§2) Pure compounds (1 mg/mL in DMSO or 50% MeOH) were tested for their antimicrobial activity against a variety of bacterial and fungal indicator strains: B. subtilis 6633 (Bs), S. aureus SG511 (Sa1), E. coli SG458 (Ec), P. aeruginosa K799/61 (Pa), S. aureus 134/94 (MRSA) (Sa2), E. faecalis 1528 (VRSA) (Ef), Mycobacterium vaccae 10670 (Mv), Sporobomyces salmonicolor 549 (Ss), C. albicans C.A. (Ca), and Penicillium notatum JP36 (Pn). On each disc, 50 µl compound solution (50 µg) were applied. Antimicrobial activity was determined by measuring the inhibition zone surrounding the disc in mm (n=3).
(§3) Bs: B. subtilis 663, Sa1: S. aureus SG511, Ec: E. coli SG458, Pa: P. aeruginosa K799/61, Sa2: S. aureus 134/94 (MRSA), Ef: E. faecalis 1528 (VRSA), Mv: M. vaccae 10670, Ss: S. salmonicolor 549, Ca: C. albicans C.A., Pn: P. notatum JP36. P: colonies in the inhibition zone, p: single colonies in the inhibition zone. A: no to low inhibition, n.t.: not tested.
(§4) B. subtilis 663, Sa1: S. aureus SG511, Ec: E. coli SG458, Ca: C. albicans C.A., P: colonies in the inhibition zone, […]

[9] = system: Penicillium notatum JP36; test: as above; assay type: cell-based; settings: Suppl. Table 17, 1 mg/mL in DMSO, 50 µl (50 µg) per disc, Amph B 10 µg/mL (DMSO/H2O), DMSO solvent control itself 12P, n=3
Procedure: as §1, §2, §3, §4

[10] = system: C. albicans C.A.; test: as above; assay type: cell-based; settings: Suppl. Table 17; disc diffusion; 1 mg/mL in DMSO, 50 µl (50 µg) per disc; Amph B 10 µg/mL (DMSO/H2O); DMSO solvent control 0; n=3
Procedure: as §1, §2, §3, §4

[11] = system: E. coli SG458; test: as above; settings: Suppl. Table 17, 1 mg/mL in DMSO, 50 µl (50 µg) per disc, Cip 5 µg/mL (H2O/HCl), DMSO solvent control itself 12P, n=3
[12] = system: cruzain; test: Fluorimetric protease inhibition assay; assay type: biochemical, Trypanosoma cruzi; settings: 200 µM, 10 min, mean ± standard deviation, n=3
[13] = system: cathepsin L; test: Fluorimetric protease inhibition assay; assay type: biochemical; settings: 200 µM, 10 min, mean ± standard deviation, n=3
[14] = system: sortase A (SrtA); settings: 200 µM
[15] = system: urokinase (uPA); test: Fluorimetric protease inhibition assay; assay type: biochemical; settings: 200 µM, 10 min, mean ± standard deviation, n=3
[16] = system: DENV2 NS2B-NS3; test: Fluorimetric protease inhibition assay; assay type: biochemical; settings: 200 µM, 10 min, mean ± standard deviation, n=3
[17] = system: ZIKV NS2B-NS3; settings: 200 µM
[18] = system: K. rhizophila DSM11926; test: Disc-diffusion antimicrobial assay, ecologically relevant indicator strains; assay type: cell-based, Kocuria rhizophila; settings: Suppl. Table 16, pure compounds 10 mg/mL in DMSO, 5 µl per disc, control Cip 5 µg/mL (HCl), DMSO control 0, n=1
[19] = system: rhodesain; settings: 200 µM
[20] = system: B. thuringiensis DSM104061; test: Disc-diffusion antimicrobial assay, ecologically relevant indicator strains; assay type: cell-based, Bacillus thuringiensis; settings: Suppl. Table 16, pure compounds 10 mg/mL in DMSO, 5 µl per disc, control Cip 5 µg/mL (HCl), DMSO control 0, n=1
[21] = system: SARS-CoV PLpro; settings: 200 µM; fluorimetric, 10 min; mean ± standard deviation, n=3
[22] = system: P. monteilii DSM1388; test: Disc-diffusion antimicrobial assay, ecologically relevant indicator strains; assay type: cell-based, Pseudomonas monteilii; settings: Suppl. Table 16, pure compounds 10 mg/mL in DMSO, 5 µl per disc, control Cip 5 µg/mL (HCl), DMSO control 0, n=1
[23] = system: cathepsin B; test: Fluorimetric protease inhibition assay; assay type: biochemical; settings: 200 µM, 10 min, mean ± standard deviation, n=3
[24] = system: SARS-CoV2 Mpro; settings: 200 µM; fluorimetric, 10 min; mean ± standard deviation, n=3
[25] = system: B. licheniformis DSM13; test: Disc-diffusion antimicrobial assay, ecologically relevant indicator strains; assay type: cell-based, Bacillus licheniformis; settings: Suppl. Table 16, pure compounds 10 mg/mL in DMSO, 5 µl per disc, control Cip 5 µg/mL (HCl), DMSO control 0, n=1
[26] = system: C. albicans SC5314; test: as above; assay type: cell-based, Candida albicans; settings: Suppl. Table 16, pure compounds 10 mg/mL in DMSO, 5 µl per disc, control Amph B 10 µg/mL (DMSO/H2O), DMSO control 0, n=1

Compound	inhibition zone, Mv [2]	inhibition zone, Pa [3]	inhibition zone, Sa1 [4]	inhibition zone, Bs [5]	inhibition zone, Sa2 [6]	inhibition zone, Ef [7]	inhibition zone, Ss [8]	inhibition zone, Pn [9]	inhibition zone, Ca [10]	inhibition zone, Ec [11]	Protease inhibition rate, Cruzain [12]	Protease inhibition rate, Cathepsin L [13]	Protease inhibition rate, SrtA [14]	Protease inhibition rate, uPA [15]	Protease inhibition rate, DENV2 [16]	Protease inhibition rate, ZIKV [17]	inhibition zone, Kr [18]	Protease inhibition rate, Rhodesain [19]	inhibition zone, Bt [20]	Protease inhibition rate, PLpro (SARS-CoV) [21]	further results
C[C@H]1CN2C(=O)/C=C/C=C/C=C/[C@@](C)(O)C(O[C@@H]3OC[C@@H](O)[C@H](O)[C@H]3N)\C=C/C=C/C=C/C=C\[C@@H]2[C@@H]1O (stereo partly shown) [Compound 8, ciromicin A, reference compound]	–	–	–	–	–	–	–	–	–	–	–	–	–	–	–	–	–	–	–	–	antimicrobial activity (in words) [1]: antifungal and antibacterial effects
Demiguisin [Compound 7]	0 mm	0 mm	0 mm	0 mm	0 mm	0 mm	0 mm	0 mm	0 mm	0 mm	–	–	–	–	–	–	–	–	–	–	antimicrobial activity (in words) [1]: no antimicrobial effects
Pachycephalamide D [Compound 4]	0 mm	18P	0 mm	0 mm	0 mm	–	25p	12p	0 mm	13P	73.97 ± 1.54%	78.67 ± 2.19%	28.78 ± 4.59	0.56 ± 0.90%	33.81 ± 3.08%	35.04 ± 1.21	0 mm	72.76 ± 1.07	0 mm	2.05 ± 2.29%	inhibition zone, Pm [22]: 0 mm; Protease inhibition rate, Cathepsin B [23]: 73.50 ± 4.05%; Protease inhibition rate, Mpro (SARS-CoV2) [24]: 24.32 ± 2.62%; inhibition zone, Bl [25]: 0 mm; inhibition zone, Ca2 [26]: 0 mm
Pachycephalamide E [Compound 5]	–	17P	0 mm	0 mm	0 mm	13p	19p	14p	0 mm	15P	43.80 ± 2.31%	47.31 ± 2.53%	17.94 ± 1.28	0 ± 0%	19.02 ± 6.12%	22.71 ± 1.47	7 mm	48.22 ± 1.63	0 mm	0 ± 0%	inhibition zone, Pm [22]: 0 mm; Protease inhibition rate, Cathepsin B [23]: 47.52 ± 9.52%; Protease inhibition rate, Mpro (SARS-CoV2) [24]: 14.75 ± 7.06%; inhibition zone, Bl [25]: 0 mm; inhibition zone, Ca2 [26]: 0 mm
Pachycephalamide F [Compound 6]	13p	18P	0 mm	0 mm	0 mm	13p	23p	13p	0 mm	13P	60.52 ± 3.73%	58.30 ± 6.91%	20.39 ± 3.94	0 ± 0%	18.47 ± 1.66%	22.62 ± 1.19	10 mm	53.72 ± 0.31	0 mm	0 ± 0%	inhibition zone, Pm [22]: 0 mm; Protease inhibition rate, Cathepsin B [23]: 57.57 ± 11.52%; Protease inhibition rate, Mpro (SARS-CoV2) [24]: 6.92 ± 5.97%; inhibition zone, Bl [25]: 0 mm; inhibition zone, Ca2 [26]: 0 mm
